Data published in PubChem BioAssay AID330 (DTP/NCI, 2004).
“And” between values parts separate entries of the source, which are not always exact repeats. Equal values may be shown once. Toxic doses and inconclusive results are not listed.

System: P388 leukemia ip, CD2F1 mice, survival T/C
Assay: NCI In Vivo Anticancer Drug Screen. Data for tumor model P388 Leukemia (intraperitoneal) in CD2F1 (CDF1) mice
Conditions: endpoint: median survival time, higher = longer survival
Summary of the method: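 Mice carrying the transplanted tumor received test compound or vehicle. Survival was recorded in each group, and the value is the treated-group measurement divided by that of the vehicle-treated control group.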

[1] = dose: 60.0 mg/kg/injection, schedule: Q01DX005 (ip), vehicle: Klucel (hydroxypropylcellulose) (HPC)
[2] = dose: 120.0 mg/kg/injection, schedule: Q01DX005 (ip), vehicle: Klucel (hydroxypropylcellulose) (HPC)
[3] = dose: 240.0 mg/kg/injection, schedule: Q01DX005 (ip), vehicle: Klucel (hydroxypropylcellulose) (HPC)
[4] = dose: 100.0 mg/kg/injection, schedule: Q01DX001 (ip), vehicle: saline with Tween-80
[5] = dose: 200.0 mg/kg/injection, schedule: Q01DX001 (ip), vehicle: saline with Tween-80
[6] = dose: 400.0 mg/kg/injection, schedule: Q01DX001 (ip), vehicle: saline with Tween-80
[7] = dose: 50.0 mg/kg/injection, schedule: Q01DX005 (ip), vehicle: saline with Tween-80
[8] = dose: 100.0 mg/kg/injection, schedule: Q01DX005 (ip), vehicle: saline with Tween-80
[9] = dose: 50.0 mg/kg/injection, schedule: Q01DX009 (ip), vehicle: Klucel (hydroxypropylcellulose) (HPC)
[10] = dose: 200.0 mg/kg/injection, schedule: Q01DX009 (ip), vehicle: Klucel (hydroxypropylcellulose) (HPC)
[11] = dose: 100.0 mg/kg/injection, schedule: Q01DX009 (ip), vehicle: Klucel (hydroxypropylcellulose) (HPC)
[12] = dose: 100.0 mg/kg/injection, schedule: Q04DX003 (ip), vehicle: Klucel (hydroxypropylcellulose) (HPC)
[13] = dose: 200.0 mg/kg/injection, schedule: Q04DX003 (ip), vehicle: Klucel (hydroxypropylcellulose) (HPC)
[14] = dose: 50.0 mg/kg/injection, schedule: Q01DX009 (ip), vehicle: water

## OCCCC(=S)NCCNC(=S)CCCO
[1]
  T/C: 101 % of control
[2]
  T/C: 92 % of control
[3]
  T/C: 101 % of control

## BC(=O)O
dose: 25.0 mg/kg/injection, schedule: Q01DX005 (ip), vehicle: saline
  T/C: 97 % of control
dose: 50.0 mg/kg/injection, schedule: Q01DX005 (ip), vehicle: saline
  T/C: 93 % of control
dose: 100.0 mg/kg/injection, schedule: Q01DX005 (ip), vehicle: saline
  T/C: 93 % of control
dose: 200.0 mg/kg/injection, schedule: Q01DX005 (ip), vehicle: saline
  T/C: 106 % of control

## C=CCNC(=S)N/N=C(/C=C/c1ccc(OC)cc1)CCN(C)C
[4]
  T/C: 87 % of control
[5]
  T/C: 89 % of control
[6]
  T/C: 90 % of control

## NC1=NC(=S)C2N=C(N=Nc3ccc(C(=O)NC(CCC(=O)O)C(=O)O)cc3)N=C2N1 (stereo unspecified)
dose: 0.19 mg/kg/injection, schedule: Q01DX009 (ip), vehicle: Klucel (hydroxypropylcellulose) (HPC)
  T/C: 108 % of control and 120 % of control
dose: 3.0 mg/kg/injection, schedule: Q01DX009 (ip), vehicle: Klucel (hydroxypropylcellulose) (HPC)
  T/C: 156 % of control

## CSCCC([NH-])C(=O)O.CSCCC([NH-])C(=O)O.[Zn+2] (stereo unspecified)
[7]
  T/C: 110 % of control
[8]
  T/C: 111 % of control

## CN1CCCc2cc(/C=C\c3ccnc4ccccc34)ccc21
dose: 25.0 mg/kg/injection, schedule: Q01DX009 (ip), vehicle: Klucel (hydroxypropylcellulose) (HPC)
  T/C: 93 % of control
[9]
  T/C: 104 % of control
[10]
  T/C: 118 % of control

## C[CH2][Sn]([CH2]C)([CH2]C)[O]C(=O)CO
dose: 1.56 mg/kg/injection, schedule: Q01DX009 (ip), vehicle: saline with Tween-80
  T/C: 115 % of control
dose: 3.12 mg/kg/injection, schedule: Q01DX009 (ip), vehicle: saline with Tween-80
  T/C: 122 % of control

## BrC(Br)=C(Br)Br
dose: 50.0 mg/kg/injection, schedule: Q01DX009 (ip), vehicle: saline
  T/C: 100 % of control
dose: 100.0 mg/kg/injection, schedule: Q01DX009 (ip), vehicle: saline
  T/C: 104 % of control
dose: 200.0 mg/kg/injection, schedule: Q01DX009 (ip), vehicle: saline
  T/C: 104 % of control

## Oc1ccc2ccccc2c1/C=N/c1nc(-c2ccc(Cl)cc2)cs1
[4]
  T/C: 89 % of control
[5]
  T/C: 90 % of control
[6]
  T/C: 92 % of control

## CN1CC[CH2][Sn]([Cl])([Cl])[CH2]CC1
dose: 3.75 mg/kg/injection, schedule: Q01DX005 (ip), vehicle: saline with Tween-80
  T/C: 114 % of control
dose: 7.5 mg/kg/injection, schedule: Q01DX005 (ip), vehicle: saline with Tween-80
  T/C: 105 % of control

## CN(C)Cc1c(N=Nc2cccc3ccccc23)[nH]c2ccccc12
[9]
  T/C: 106 % of control
[11]
  T/C: 101 % of control
[10]
  T/C: 105 % of control

## S=C1SCCCN1c1ccccc1
[12]
  T/C: 100 % of control
[13]
  T/C: 110 % of control

## O=C(Nc1ccc(Oc2ccc(Cl)cc2)c(Cl)c1)c1cc(I)cc(I)c1O
dose: 12.5 mg/kg/injection, schedule: Q01DX005 (ip), vehicle: Klucel (hydroxypropylcellulose) (HPC)
  T/C: 96 % of control
dose: 25.0 mg/kg/injection, schedule: Q01DX005 (ip), vehicle: Klucel (hydroxypropylcellulose) (HPC)
  T/C: 109 % of control
dose: 50.0 mg/kg/injection, schedule: Q01DX005 (ip), vehicle: Klucel (hydroxypropylcellulose) (HPC)
  T/C: 101 % of control and 115 % of control

## CCCCCCC1C(C#N)C(=O)NC(=O)C1C#N (stereo unspecified)
[9]
  T/C: 96 % of control
[11]
  T/C: 95 % of control
[10]
  T/C: 93 % of control

## CCN(CC)Cc1c(C)[nH]c2c(ccc3cc4ccccc4cc32)c1=O
[12]
  T/C: 94 % of control
[13]
  T/C: 97 % of control
dose: 400.0 mg/kg/injection, schedule: Q04DX003 (ip), vehicle: Klucel (hydroxypropylcellulose) (HPC)
  T/C: 96 % of control

## COC(=O)N1CC2[C@H](O)[C@H](O)C1ON2c1ccccc1 (stereo partly specified)
[1]
  T/C: 101 % of control
[2]
  T/C: 94 % of control
[3]
  T/C: 93 % of control

## O=C(O)c1cc2c([nH]1)-c1cccnc1C(=O)C2=O
dose: 60.0 mg/kg/injection, schedule: Q01DX005 (ip), vehicle: saline with Tween-80
  T/C: 101 % of control
dose: 120.0 mg/kg/injection, schedule: Q01DX005 (ip), vehicle: saline with Tween-80
  T/C: 105 % of control
dose: 240.0 mg/kg/injection, schedule: Q01DX005 (ip), vehicle: saline with Tween-80
  T/C: 101 % of control

## COc1ccc(Cc2cc(O)c(O)cc2C)cc1
dose: 2.5 mg/kg/injection, schedule: Q01DX009 (ip), vehicle: saline with Tween-80
  T/C: 108 % of control
dose: 5.0 mg/kg/injection, schedule: Q01DX009 (ip), vehicle: saline with Tween-80
  T/C: 105 % of control
dose: 10.0 mg/kg/injection, schedule: Q01DX009 (ip), vehicle: saline with Tween-80
  T/C: 108 % of control

## C/C(=N/NC(N)=O)c1cccc(/C(C)=N/NC(N)=O)n1.[Cl][Zn][Cl]
dose: 6.25 mg/kg/injection, schedule: Q01DX009 (ip), vehicle: saline
  T/C: 103 % of control
dose: 12.5 mg/kg/injection, schedule: Q01DX009 (ip), vehicle: saline
  T/C: 102 % of control
dose: 25.0 mg/kg/injection, schedule: Q01DX009 (ip), vehicle: saline
  T/C: 105 % of control

## N#Cc1c(=O)n(O)c2ccccc2[n+]1[O-]
dose: 25.0 mg/kg/injection, schedule: Q01DX005 (ip), vehicle: saline with Tween-80
  T/C: 94 % of control
[7]
  T/C: 97 % of control
[8]
  T/C: 106 % of control
dose: 200.0 mg/kg/injection, schedule: Q01DX005 (ip), vehicle: saline with Tween-80
  T/C: 102 % of control
dose: 400.0 mg/kg/injection, schedule: Q01DX005 (ip), vehicle: saline with Tween-80
  T/C: 93 % of control

## S=c1n(-c2ccc(Cl)cc2)c2nc3ccccc3nc(/c2=N\Nc2ccc(Br)cc2)n1-c1ccccn1
[7]
  T/C: 101 % of control

## O=C1NC(=O)C2(CC3CCCC(C2)N3CCO)N1 (stereo unspecified)
[14]
  T/C: 101 % of control
dose: 100.0 mg/kg/injection, schedule: Q01DX009 (ip), vehicle: water
  T/C: 101 % of control
dose: 200.0 mg/kg/injection, schedule: Q01DX009 (ip), vehicle: water
  T/C: 100 % of control

## C/C(=N\NC(=S)N1CCN(c2ccccn2)CC1)c1nccs1
dose: 6.25 mg/kg/injection, schedule: Q01DX005 (ip), vehicle: saline with Tween-80
  T/C: 105 % of control
dose: 12.5 mg/kg/injection, schedule: Q01DX005 (ip), vehicle: saline with Tween-80
  T/C: 113 % of control

## O=NNc1cnccn1
dose: 1.56 mg/kg/injection, schedule: Q01DX009 (ip), vehicle: water
  T/C: 100 % of control
dose: 3.12 mg/kg/injection, schedule: Q01DX009 (ip), vehicle: water
  T/C: 109 % of control and 100 % of control
dose: 6.25 mg/kg/injection, schedule: Q01DX009 (ip), vehicle: water
  T/C: 110 % of control and 112 % of control and 97 % of control
dose: 12.5 mg/kg/injection, schedule: Q01DX009 (ip), vehicle: water
  T/C: 116 % of control and 122 % of control
dose: 25.0 mg/kg/injection, schedule: Q01DX009 (ip), vehicle: water
  T/C: 150 % of control
dose: 25.3 mg/kg/injection, schedule: Q01DX009 (ip), vehicle: other
  T/C: 161 % of control
dose: 25.3 mg/kg/injection, schedule: Q01DX009 (ip), vehicle: water
  T/C: 170 % of control
dose: 37.5 mg/kg/injection, schedule: Q01DX009 (ip), vehicle: water
  T/C: 224 % of control and 245 % of control and 271 % of control
dose: 38.0 mg/kg/injection, schedule: Q01DX009 (ip), vehicle: other
  T/C: 225 % of control
[14]
  T/C: 118 % of control [middle of 5 runs]
dose: 57.0 mg/kg/injection, schedule: Q01DX009 (ip), vehicle: water
  T/C: 112 % of control

## CN1CCN(CC2C(=O)C3CCC2C3)CC1 (stereo unspecified)
[7]
  T/C: 93 % of control
[8]
  T/C: 101 % of control

## CCCCCCCCCCCCCCCc1ccc(OC)cc1
dose: 7.5 mg/kg/injection, schedule: Q01DX009 (ip), vehicle: saline with Tween-80
  T/C: 90 % of control
dose: 15.0 mg/kg/injection, schedule: Q01DX009 (ip), vehicle: saline with Tween-80
  T/C: 94 % of control
dose: 30.0 mg/kg/injection, schedule: Q01DX009 (ip), vehicle: saline with Tween-80
  T/C: 104 % of control

## Cn1c2ccccc2c2nnc(-n3nc(-c4ccccc4)cc3N)nc21
dose: 100.0 mg/kg/injection, schedule: Q04DX002 (ip), vehicle: saline with Tween-80
  T/C: 92 % of control
dose: 200.0 mg/kg/injection, schedule: Q04DX002 (ip), vehicle: saline with Tween-80
  T/C: 92 % of control
dose: 400.0 mg/kg/injection, schedule: Q04DX002 (ip), vehicle: saline with Tween-80
  T/C: 91 % of control

## CC1(C)OP2(O)(OC(C)(C)c3ccccc32)c2ccccc21
[9]
  T/C: 99 % of control
[11]
  T/C: 102 % of control
[10]
  T/C: 104 % of control
